Results reported in PubChem BioAssay AID588660 (The Scripps Research Institute Molecular Screening Center, 2011).
The source made the active and inactive calls.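 Rule for the calls: active = KLF5 protein level shifted at least 30% from solvent-only control, either down or up; inactive = shift under 30% either way.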

Target: Krueppel-like factor 5 (Homo sapiens) (UniProt Q13887)
Assay: KLF5 protein abundance shift by immunoblot – western blot, chemiluminescence, HT29 colorectal cells, counter-screen for KLF5 inhibitor project, late-stage follow-up (AID 588660)
Settings: 24 h, at 10 µM, active compounds read high

Sequence of Krueppel-like factor 5 (Homo sapiens) (Q13887 whole entry, looked up): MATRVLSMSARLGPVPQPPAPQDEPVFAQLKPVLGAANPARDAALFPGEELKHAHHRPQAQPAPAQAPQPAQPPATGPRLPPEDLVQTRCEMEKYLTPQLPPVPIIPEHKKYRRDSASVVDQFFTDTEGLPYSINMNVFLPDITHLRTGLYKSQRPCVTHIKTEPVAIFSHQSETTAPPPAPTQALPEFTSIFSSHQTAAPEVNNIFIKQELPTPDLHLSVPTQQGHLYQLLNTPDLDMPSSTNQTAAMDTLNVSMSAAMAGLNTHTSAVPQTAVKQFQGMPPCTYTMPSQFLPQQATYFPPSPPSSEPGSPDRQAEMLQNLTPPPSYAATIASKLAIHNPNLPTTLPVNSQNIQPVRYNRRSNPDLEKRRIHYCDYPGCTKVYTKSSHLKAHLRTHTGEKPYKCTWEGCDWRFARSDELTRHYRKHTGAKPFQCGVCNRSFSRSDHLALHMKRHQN

inhibition: 12.8% (inactive)
Compound: CN(C(=O)COC(=O)/C=C/c1cccc([N+](=O)[O-])c1)C1CCS(=O)(=O)C1 (stereo unspecified)
